These results are taken from US12594276B2, “Inhibitors of human immunodeficiency virus replication” (ViiV Healthcare UK (No.5) Limited, priority 2024, dated 2026).

The test deals with recombinant NL4-3 virus (nef section replaced with Renilla luciferase gene) in MT-2 cells. The test can be described thus: HIV cell culture assay (antiviral activity, luciferase readout). The format is cell-based. Particulars: Renilla, NL43, MT-2 cells infected for 4-5 days with recombinant NL4-3 Renilla luciferase virus. The protocol:
HIV cell culture assay—MT-2 cells, 293T cells and the proviral DNA clone of NL4-3 virus were obtained from the NIH AIDS Research and Reference Reagent Program. MT-2 cells were propagated in RPMI 1640 media supplemented with 10% heat inactivated fetal bovine serum (FBS), […]. The 293T cells were propagated in DMEM media supplemented with 10% heat inactivated FBS, […]. A recombinant NL4-3 proviral clone, in which a section of the nef gene was replaced with the Renilla luciferase gene, was used to make the reference virus used in these studies. The recombinant virus was prepared through transfection of the recombinant NL4-3 proviral clone into 293T cells using Transit-293 Transfection Reagent from Mirus Bio LLC (Madison, WI). Supernatant was harvested after 2-3 days and the amount of virus present was titered in MT-2 cells using luciferase enzyme activity as a marker by measuring luciferase enzyme activity. Luciferase was quantitated using the EnduRen Live Cell Substrate from Promega (Madison, WI). Antiviral activities of compounds toward the recombinant virus were quantified by measuring luciferase activity in MT-2 cells infected for 4-5 days with the recombinant virus in the presence of serial dilutions of the compound.
The 50% effective concentration (EC50) was calculated by using the exponential form of the median effect equation where (Fa)=1/[1+(ED50/drug conc.)m](Johnson V A, Byington R T. Infectivity Assay. In Techniques in HIV Research. ed. Aldovini A, Walker B D. 71-76. New York: Stockton Press. 1990). Curve fitting and analysis were performed with ActivityBase XE Runner software version 9.1.0.4 using model 203 (ID Business Solutions, LTD, Guildford, UK).

The EC50 is the concentration at which the effect is half-maximal. In the case of `Cc1cc(C2CCC(F)(F)CC2)nc2nc([C@H](Cc3cc(F)cc(F)c3)NC(=O)Cn3nc(C4CC4)c4c3C[C@H]3C[C@@H]43)n(-c3ccc(Cl)c4c(NS(C)(=O)=O)nn(CCN5CC(C)(C)OC(C)(C)C5)c34)c(=O)c12` (atropisomer, axis not shown; (P)) [Example 606, N-[(1S)-1-[(3P)-3-{4-chloro-3-methanesulfonamido-1-[2-(2,2,6,6-tetramethylmorpholin-4-yl)ethyl]-1H-indazol-7-yl}-7-(4,4-difluorocyclohexyl)-5-methyl-4-oxo-3H,4H-pyrido[2,3-d]pyrimidin-2-yl]-2-(3,5-difluorophenyl)ethyl]-2-[(2R,4R)-9-cyclopropyl-7,8-diazatricyclo[4.3.0.0^2,^4]nona-1(6),8-dien-7-yl]acetamide], the concentration for a half-maximal effect (EC50) amounted to 26 pM.
The value for `Cc1cc(C2CCC(F)(F)CC2)nc2nc([C@H](Cc3cc(F)cc(F)c3)NC(=O)Cn3nc(C(F)(F)F)c4c3C(F)(F)[C@@H]3C[C@H]43)n(-c3ccc(Cl)c4c(NS(C)(=O)=O)nn(CCN5CC(C)(C)OC(C)(C)C5)c34)c(=O)c12` (atropisomer, axis not shown; (P)) [Example 609, N-[(1S)-1-[(3P)-3-{4-chloro-3-methanesulfonamido-1-[2-(2,2,6,6-tetramethylmorpholin-4-yl)ethyl]-1H-indazol-7-yl}-7-(4,4-difluorocyclohexyl)-5-methyl-4-oxo-3H,4H-pyrido[2,3-d]pyrimidin-2-yl]-2-(3,5-difluorophenyl)ethyl]-2-[(2S,4R)-5,5-difluoro-9-(trifluoromethyl)-7,8-diazatricyclo[4.3.0.0^2,^4]nona-1(6),8-dien-7-yl]acetamide] was 33 pM; that for `Cc1cc(C2CCC(F)(F)CC2)nc2nc([C@H](Cc3cc(F)cc(F)c3)NC(=O)Cn3nc(C4CC4)c4c3C(F)(F)[C@@H]3C[C@H]43)n(-c3ccc(Cl)c4c(NS(C)(=O)=O)nn(CCN5CC(C)(C)OC(C)(C)C5)c34)c(=O)c12` (atropisomer, axis not shown; (P)) [Example 610, N-[(1S)-1-[(3P)-3-{4-chloro-3-methanesulfonamido-1-[2-(2,2,6,6-tetramethylmorpholin-4-yl)ethyl]-1H-indazol-7-yl}-7-(4,4-difluorocyclohexyl)-5-methyl-4-oxo-3H,4H-pyrido[2,3-d]pyrimidin-2-yl]-2-(3,5-difluorophenyl)ethyl]-2-[(2S,4R)-9-cyclopropyl-5,5-difluoro-7,8-diazatricyclo[4.3.0.0^2,^4]nona-1(6),8-dien-7-yl]acetamide] was 17 pM; that for `Cc1cc(C2CCC(F)(F)CC2)nc2nc([C@H](Cc3cc(F)cc(F)c3)NC(=O)Cn3nc(C(F)F)c4c3C[C@@H]3C[C@H]43)n(-c3ccc(Cl)c4c(NS(C)(=O)=O)nn(CCN5CC(C)(C)OC(C)(C)C5)c34)c(=O)c12` (atropisomer, axis not shown; (P)) [Example 611, N-[(1S)-1-[(3P)-3-{4-chloro-3-methanesulfonamido-1-[2-(2,2,6,6-tetramethylmorpholin-4-yl)ethyl]-1H-indazol-7-yl}-7-(4,4-difluorocyclohexyl)-5-methyl-4-oxo-3H,4H-pyrido[2,3-d]pyrimidin-2-yl]-2-(3,5-difluorophenyl)ethyl]-2-[(2S,4S)-9-(difluoromethyl)-7,8-diazatricyclo[4.3.0.0^2,^4]nona-1(6),8-dien-7-yl]acetamide] was 25 pM.
With `Cc1cc(C2CCC(F)(F)CC2)nc2nc([C@H](Cc3cc(F)cc(F)c3)NC(=O)Cn3nc(C(F)(F)F)c4c3C[C@@H]3C[C@H]43)n(-c3ccc(Cl)c4c(NS(C)(=O)=O)nn(CCN5CC(C)(C)OC(C)(C)C5)c34)c(=O)c12` (atropisomer, axis not shown; (P)) [Example 612, N-[(1S)-1-[(3P)-3-{4-chloro-3-methanesulfonamido-1-[2-(2,2,6,6-tetramethylmorpholin-4-yl)ethyl]-1H-indazol-7-yl}-7-(4,4-difluorocyclohexyl)-5-methyl-4-oxo-3H,4H-pyrido[2,3-d]pyrimidin-2-yl]-2-(3,5-difluorophenyl)ethyl]-2-[(2S,4S)-9-(trifluoromethyl)-7,8-diazatricyclo[4.3.0.0^2,^4]nona-1(6),8-dien-7-yl]acetamide] the figure was 28 pM.
Regarding `Cc1cc(C2CCC(F)(F)CC2)nc2nc([C@H](Cc3cc(F)cc(F)c3)NC(=O)Cn3nc([C@H]4CC4(F)F)c4c3C[C@H]3C[C@@H]43)n(-c3ccc(Cl)c4c(NS(C)(=O)=O)nn(CCN5CC(C)(C)OC(C)(C)C5)c34)c(=O)c12` (atropisomer, axis not shown; (P)) [Example 613, N-[(1S)-1-[(3P)-3-{4-chloro-3-methanesulfonamido-1-[2-(2,2,6,6-tetramethylmorpholin-4-yl)ethyl]-1H-indazol-7-yl}-7-(4,4-difluorocyclohexyl)-5-methyl-4-oxo-3H,4H-pyrido[2,3-d]pyrimidin-2-yl]-2-(3,5-difluorophenyl)ethyl]-2-[(2R,4R)-9-[(1R)-2,2-difluorocyclopropyl]-7,8-diazatricyclo[4.3.0.0^2,^4]nona-1(6),8-dien-7-yl]acetamide], the EC50 was found to be 15 pM.
For `COCCCn1nc(NS(C)(=O)=O)c2c(Cl)ccc(-n3c([C@H](Cc4cc(F)cc(F)c4)NC(=O)Cn4nc(C(F)F)c5c4C(F)(F)[C@@H]4C[C@H]54)nc4nc(C5(CCN6C[C@H](F)C[C@H](F)C6)CCC(F)(F)CC5)cc(C)c4c3=O)c21` (atropisomer, axis not shown; (P)) [Example 615], the EC50 was determined as 27 pM.
The value for `CS(=O)(=O)Nc1nn(CCN2C[C@H](F)C[C@H](F)C2)c2c(-n3c([C@H](Cc4cc(F)cc(F)c4)NC(=O)Cn4nc(C(F)F)c5c4C(F)(F)[C@@H]4C[C@H]54)nc4nc(C5CCC(F)(F)CC5)cc(CN5CC(F)(F)C5)c4c3=O)ccc(Cl)c12` (atropisomer, axis not shown; (P)) [Example 620, N-[(1S)-1-[(3P)-3-(4-chloro-1-{2-[(3R,5S)-3,5-difluoropiperidin-1-yl]ethyl}-3-methanesulfonamido-1H-indazol-7-yl)-5-[(3,3-difluoroazetidin-1-yl)methyl]-7-(4,4-difluorocyclohexyl)-4-oxo-3H,4H-pyrido[2,3-d]pyrimidin-2-yl]-2-(3,5-difluorophenyl)ethyl]-2-[(2S,4R)-9-(difluoromethyl)-5,5-difluoro-7,8-diazatricyclo[4.3.0.0^2,]nona-1(6),8-dien-7-yl]acetamide] was 7 pM; that for `CC1(C)CN(CCn2nc(NS(C)(=O)=O)c3c(Cl)ccc(-n4c([C@H](Cc5cc(F)cc(F)c5)NC(=O)Cn5nc(C(F)F)c6c5C(F)(F)[C@@H]5C[C@H]65)nc5nc(C6CCC(F)(F)CC6)cc(CN6CC(F)(F)C6)c5c4=O)c32)CC(C)(C)O1` (atropisomer, axis not shown; (P)) [Example 621, N-[(1S)-1-[(3P)-3-{4-chloro-3-methanesulfonamido-1-[2-(2,2,6,6-tetramethylmorpholin-4-yl)ethyl]-1H-indazol-7-yl}-5-[(3,3-difluoroazetidin-1-yl)methyl]-7-(4,4-difluorocyclohexyl)-4-oxo-3H,4H-pyrido[2,3-d]pyrimidin-2-yl]-2-(3,5-difluorophenyl)ethyl]-2-[(2S,4R)-9-(difluoromethyl)-5,5-difluoro-7,8-diazatricyclo[4.3.0.0^2,4]nona-1(6),8-dien-7-yl]acetamide] was 5 pM.
With `Cc1cc(C2CCC(F)(F)CC2)nc2nc([C@H](Cc3cc(F)cc(F)c3)NC(=O)Cn3nc(C(F)F)c4c3C(F)(F)[C@@H]3C[C@H]43)n(-c3ccc(Cl)c4c(NS(C)(=O)=O)nn(C[C@@H](C)N5CC(C)(C)OC(C)(C)C5)c34)c(=O)c12` (atropisomer, axis not shown; (P)) [Example 705, N-[(1S)-1-[(3P)-3-{4-chloro-3-methanesulfonamido-1-[(2R)-2-(2,2,6,6-tetramethylmorpholin-4-yl)propyl]-1H-indazol-7-yl}-7-(4,4-difluorocyclohexyl)-5-methyl-4-oxo-3H,4H-pyrido[2,3-d]pyrimidin-2-yl]-2-(3,5-difluorophenyl)ethyl]-2-[(2S,4R)-9-(difluoromethyl)-5,5-difluoro-7,8-diazatricyclo[4.3.0.0^2,^4]nona-1(6),8-dien-7-yl]acetamide] the figure was 21 pM; with `Cc1cc(C2(F)CCC(F)(F)CC2)nc2nc([C@H](Cc3cc(F)cc(F)c3)NC(=O)Cn3nc(C(F)F)c4c3C(F)(F)[C@@H]3C[C@H]43)n(-c3ccc(Cl)c4c(NS(C)(=O)=O)nn(C[C@@H](C)N5CC(C)(C)OC(C)(C)C5)c34)c(=O)c12` (atropisomer, axis not shown; (P)) [Example 707, N-[(1S)-1-[(3P)-3-{4-chloro-3-methanesulfonamido-1-[(2R)-2-(2,2,6,6-tetramethylmorpholin-4-yl)propyl]-1H-indazol-7-yl}-5-methyl-4-oxo-7-(1,4,4-trifluorocyclohexyl)-3H,4H-pyrido[2,3-d]pyrimidin-2-yl]-2-(3,5-difluorophenyl)ethyl]-2-[(2S,4R)-9-(difluoromethyl)-5,5-difluoro-7,8-diazatricyclo[4.3.0.0^2,^4]nona-1(6),8-dien-7-yl]acetamide], 38 pM.
